Data from ChEMBL document CHEMBL1156043, “Selective inactivation of triosephosphate isomerase from Trypanosoma cruzi by brevifolin carboxylate derivatives isolated from Geranium bellum Rose” (Bioorg Med Chem Lett, 2009).

What was measured:
[1] = biological target: T1, Triosephosphate isomerase, glycosomal (Trypanosoma cruzi, UniProt P52270); assay: Inhibition of Trypanosoma cruzi recombinant triosephosphate isomerase after 2 hrs; settings: read-out: I50
[2] = biological target: Triosephosphate isomerase (Homo sapiens, UniProt P60174); assay: Inhibition of human recombinant triosephosphate isomerase after 2 hrs; settings: read-out: I50
[3] = biological target: T1, Triosephosphate isomerase, glycosomal; assay: Binding affinity to Trypanosoma cruzi recombinant triosephosphate isomerase; settings: read-out: Kd(app)

T1 sequence (P52270 whole entry): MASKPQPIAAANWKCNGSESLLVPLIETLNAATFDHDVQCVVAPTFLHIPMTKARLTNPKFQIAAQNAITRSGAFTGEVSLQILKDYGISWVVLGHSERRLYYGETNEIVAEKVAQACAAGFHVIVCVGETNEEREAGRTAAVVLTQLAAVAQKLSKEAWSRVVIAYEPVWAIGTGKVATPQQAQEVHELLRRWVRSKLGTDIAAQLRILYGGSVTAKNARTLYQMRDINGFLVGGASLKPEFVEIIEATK
Triosephosphate isomerase, sequence (P60174 whole entry): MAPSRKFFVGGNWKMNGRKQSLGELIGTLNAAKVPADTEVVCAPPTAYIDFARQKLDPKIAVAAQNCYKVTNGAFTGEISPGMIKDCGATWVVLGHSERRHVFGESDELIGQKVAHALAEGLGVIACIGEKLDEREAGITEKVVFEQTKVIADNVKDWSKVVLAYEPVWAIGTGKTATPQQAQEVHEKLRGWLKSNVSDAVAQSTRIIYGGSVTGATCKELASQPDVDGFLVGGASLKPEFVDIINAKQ

IC50 [1] [µM] | IC50 [2] [µM] | Kd [3] [µM] | Compound
> 1000 | > 1000 |  | COC(=O)C1CC(=O)c2oc(=O)c3cc(OC)c(OC)c(OC)c3c21 (centres undefined)
14 | > 1000 |  | CCCCOC(=O)C1CC(=O)c2oc(=O)c3cc(O)c(O)c(O)c3c21 (centres undefined) [BUTYLBREVIFOLIN CARBOXYLATE]
8 | > 1000 |  | CCOC(=O)C1CC(=O)c2oc(=O)c3cc(O)c(O)c(O)c3c21 (centres undefined) [ETHYLBREVIFOLIN CARBOXYLATE]
6.5 | > 1000 | 10.4 | COC(=O)C1CC(=O)c2oc(=O)c3cc(O)c(O)c(O)c3c21 (centres undefined) [METHYLBREVIFOLIN CARBOXYLATE]
